Earlier results, collected in patent publication US20040077556A1, “Compositions and methods for promoting weight loss, thermogenesis, appetite suppression, lean muscle mass, increasing metabolism and boosting energy levels, and use as a dietary supplement in mammals” (priority 2002, published 2004).
Read-outs that look alike come from different tables or passages of the source.

Key:
[1] = cold-exposed rats
[2] = test system: brown adipose tissue thermogenesis

## O=c1c(O)c(-c2ccc(O)c(O)c2)oc2cc(O)cc(O)c12 [quercetin, 3,3′,4′,5-7-pentahydroxyflavone]
cAMP
  increase in cAMP: dose-dependent increase

## Cn1c(=O)c2[nH]cnc2n(C)c1=O.NCCN [aminophylline, theophylline ethylenediamine]
[1]; fed
  increase of maximum thermogenesis: 14.4%
[1]; unfed
  increase of maximum thermogenesis: 19.4%
[1]; unfed, to levels seen in fed rats, dropped 18.2 percent without pretreatment
  noradrenaline-stimulated thermogenesis after pretreatment: restored

## O=C(O[C@@H]1Cc2c(O)cc(O)cc2O[C@@H]1c1cc(O)c(O)c(O)c1)c1cc(O)c(O)c(O)c1 [EGCG, (2R,3R)-2-(3,4,5-Trihydroxyphenyl)-3,4-dihydro-1[2H]-benzopyran-3,5,7-triol 3-(3,4,5-trihydroxybenzoate)]
[2]; EGCG alone, 200 μM
  increase in thermogenesis: 40%
[2]; EGCG alone, 50 and 100 μM
  effect on thermogenesis: no effect

## O=c1c(O)c(-c2ccc(O)c(O)c2)oc2cc(O)ccc12 [Fisetin, 3,3′,4′,7-tetrahydroxyflavone]
cAMP
  increase in cAMP: dose-dependent increase

## Cn1c(=O)c2c(ncn2C)n(C)c1=O [caffeine]
[2]; caffeine alone
  effect on thermogenesis: little or no effect

## NCCc1ccccc1 [PEA, phenylethylamine]
15 mg per kg of bodyweight per day
  decrease of food intake: roughly one-third
50 mg per kg of bodyweight
  maximum reduction of food intake: roughly twenty
15-50 mg per kg of bodyweight
  reduction of food intake: 20-30%
After four weeks
  tolerance to appetite-reducing effect: no tolerance
